# Patent US20220257698A1, “ANGIOTENSIN TYPE 2 (AT2) RECEPTOR AGONISTS FOR USE IN THE TREATMENT OF CANCER” (LANTHIOPEP B.V., priority 2019, published 2022)
# Tested on: head & neck carcinoma PDX model HN10309
# Test: KcAng(1-7) on growth of head & neck carcinoma PDX HN10309 in mice
# Type: in vivo, NMRI nu/nu mice (human PDX)
# Description: In vivo studies were conducted at EPO GmbH Berlin. Large studies (FIG. 1A, 2, 3, 4, 5) comprised 3 groups of 10 mice/group and 5 animals as reserve, as outlined in Table 1. Smaller studies (FIG. 1B, 1C, 1D) comprised 2 groups of mice of 3 mice per group. The animals were allocated to the various treatment groups (e.g. 0.2 μg/kg and 30 μg/kg) with a maximum of 10 animals per group. […] The groups received subcutaneous (s.c.) drug injection (for max. 28 days) as outlined in the Table 1.
# NMRI nu/nu mice were used in this study. The animals were female at age of 6 to 8 weeks. The respective PDX tumors were inoculated subcutaneously (s.c.), and the tumors were grown to achieve palpable tumor sizes before start of the respective treatments. The PDX included breast (MaCa4151), colon (Co9689A), head & neck (HN10309), lung (Lu7433) and ovarian (OvCa13329) cancer (Table 2).
# Treatment with KcAng(1-7) was started with palpable tumors after the randomization of animals regarding tumor volume. KcAng(1-7) was applied s.c. by daily injections at […] or 30 μg/kg dose for a maximum of 28 days (or earlier as defined by the humane end point for the study).
# KcAng(1-7) was prepared as follows: The compounds was suspended in sterile PBS resulting in a clear solution. The remains of this formulation were stored at 4° C.
# Tumor growth stimulatory or inhibitory activity of the KcAng(1-7) was evaluated by determination of tumor volumes (TV). During the study, tumor volumes and body weight were measured twice a week, and the ratio of the mean tumor volumes between the compound-treated group and the vehicle-treated group (T/C) was calculated.
# Tumor volume=(tumor width)×(tumor width)×(tumor length)+2
# T/C=T÷C • T: Mean estimated tumor volume of the compound-treated group • C: Mean estimated tumor volume of the vehicle-treated group
# [1] = Gr. B 0.2 μg/kg/d s.c., Day 35 (Meas. 1)
# [2] = Gr. B 0.2 μg/kg/d s.c., Day 38 (Meas. 2)
# [3] = Gr. B 0.2 μg/kg/d s.c., Day 41 (Meas. 3)
# [4] = Gr. B 0.2 μg/kg/d s.c., Day 45 (Meas. 4)
# [5] = Gr. B 0.2 μg/kg/d s.c., Day 49 (Meas. 5)
# [6] = Gr. B 0.2 μg/kg/d s.c., Day 52 (Meas. 6)
# [7] = Gr. B 0.2 μg/kg/d s.c., Day 55 (Meas. 7)
# [8] = Gr. B 0.2 μg/kg/d s.c., Day 58 (Meas. 8)
# [9] = Gr. B 0.2 μg/kg/d s.c., Day 63 (Meas. 9)
# [10] = Gr. C 30 μg/kg/d s.c., Day 35 (Meas. 1)
# [11] = Gr. C 30 μg/kg/d s.c., Day 38 (Meas. 2)
# [12] = Gr. C 30 μg/kg/d s.c., Day 41 (Meas. 3)
# [13] = Gr. C 30 μg/kg/d s.c., Day 45 (Meas. 4)
# [14] = Gr. C 30 μg/kg/d s.c., Day 49 (Meas. 5)
# [15] = Gr. C 30 μg/kg/d s.c., Day 52 (Meas. 6)
# [16] = Gr. C 30 μg/kg/d s.c., Day 55 (Meas. 7)
# [17] = Gr. C 30 μg/kg/d s.c., Day 58 (Meas. 8)
# [18] = Gr. C 30 μg/kg/d s.c., Day 63 (Meas. 9)
substance,measurement,setting,value
Lys-Asp-Arg-Val-Abu/Ala-Ile-His-Abu/Ala (KDRVAIHA; not fully specified; cyclic thioether (Abu/Ala bridge); VARIANT (5)..(5) /replace=“Abu”; VARIANT (8)..(8) /replace=“Abu”; SITE (1)..(8) /note=“Variant residues given in the sequence have no preference with respect to those in the annotations for variant positions”) [KcAng(1-7)],optT/C,"30 μg/kg, day 14 of the treatment",71%
same,effect on tumor volume,"0.2 and 30 μg/kg, 28 days",did not result in a reduction or increase in tumor volume
same,RTV Mean,[1],1
same,RTV Median,[1],1
same,T/C,[1],100.1%
same,Tumor Vol. Mean,[1],0.083 cm^3
same,Tumor Vol. Median,[1],0.064 cm^3
same,RTV Mean,[2],1.6
same,RTV Median,[2],1.7
same,T/C,[2],107.9%
same,Tumor Vol. Mean,[2],0.128 cm^3
same,Tumor Vol. Median,[2],0.085 cm^3
same,RTV Mean,[3],2.1
same,RTV Median,[3],2.1
same,T/C,[3],100.6%
same,Tumor Vol. Mean,[3],0.164 cm^3
same,Tumor Vol. Median,[3],0.14 cm^3
same,RTV Mean,[4],2.6
same,RTV Median,[4],2.5
same,T/C,[4],116.7%
same,Tumor Vol. Mean,[4],0.217 cm^3
same,Tumor Vol. Median,[4],0.158 cm^3
same,RTV Mean,[5],3.3
same,RTV Median,[5],3.2
same,T/C,[5],104.4%
same,Tumor Vol. Mean,[5],0.275 cm^3
same,Tumor Vol. Median,[5],0.209 cm^3
same,RTV Mean,[6],4.4
same,RTV Median,[6],4
same,T/C,[6],126.7%
same,Tumor Vol. Mean,[6],0.367 cm^3
same,Tumor Vol. Median,[6],0.303 cm^3
same,RTV Mean,[7],5.4
same,RTV Median,[7],4.8
same,T/C,[7],126.5%
same,Tumor Vol. Mean,[7],0.443 cm^3
same,Tumor Vol. Median,[7],0.366 cm^3
same,RTV Mean,[8],5.8
same,RTV Median,[8],4.9
same,T/C,[8],115.2%
same,Tumor Vol. Mean,[8],0.473 cm^3
same,Tumor Vol. Median,[8],0.437 cm^3
same,RTV Mean,[9],8.9
same,RTV Median,[9],7.3
same,T/C,[9],120.4%
same,Tumor Vol. Mean,[9],0.677 cm^3
same,Tumor Vol. Median,[9],0.64 cm^3
same,RTV Mean,[10],1
same,RTV Median,[10],1
same,T/C,[10],99.5%
same,Tumor Vol. Mean,[10],0.083 cm^3
same,Tumor Vol. Median,[10],0.077 cm^3
same,RTV Mean,[11],1.3
same,RTV Median,[11],1.3
same,T/C,[11],83.5%
same,Tumor Vol. Mean,[11],0.099 cm^3
same,Tumor Vol. Median,[11],0.092 cm^3
same,RTV Mean,[12],1.6
same,RTV Median,[12],1.5
same,T/C,[12],74.6%
same,Tumor Vol. Mean,[12],0.122 cm^3
same,Tumor Vol. Median,[12],0.117 cm^3
same,RTV Mean,[13],1.8
same,RTV Median,[13],1.7
same,T/C,[13],75%
same,Tumor Vol. Mean,[13],0.139 cm^3
same,Tumor Vol. Median,[13],0.135 cm^3
same,RTV Mean,[14],2.2
same,RTV Median,[14],2.2
same,T/C,[14],71.3%
same,Tumor Vol. Mean,[14],0.188 cm^3
same,Tumor Vol. Median,[14],0.187 cm^3
same,RTV Mean,[15],2.8
same,RTV Median,[15],2.9
same,T/C,[15],89.8%
same,Tumor Vol. Mean,[15],0.26 cm^3
same,Tumor Vol. Median,[15],0.236 cm^3
same,RTV Mean,[16],3.5
same,RTV Median,[16],3.5
same,T/C,[16],92.1%
same,Tumor Vol. Mean,[16],0.323 cm^3
same,Tumor Vol. Median,[16],0.283 cm^3
same,RTV Mean,[17],3.9
same,RTV Median,[17],4
same,T/C,[17],89.3%
same,Tumor Vol. Mean,[17],0.367 cm^3
same,Tumor Vol. Median,[17],0.303 cm^3
same,RTV Mean,[18],5.6
same,RTV Median,[18],5.8
same,T/C,[18],96.3%
same,Tumor Vol. Mean,[18],0.541 cm^3
same,Tumor Vol. Median,[18],0.505 cm^3
